We go through two compounds from patent US20250304578A1, “NITROGEN-CONTAINING FUSED HETEROCYCLIC COMPOUNDS OF N-SULFONAMIDE AND USE THEREOF” (NUTSHELL THERAPEUTICS (SHANGHAI) CO., LTD., priority 2023, published 2025).

Where two headings read alike, the source gives them in different places.

Data set [1] deals with voltage-gated potassium channel hERG (Homo sapiens (Human), UniProt Q12809). The experiment in a line: hERG potassium channel inhibitory activity test (manual patch clamp, HEK293). Particulars: HEK293 cells stably expressing hERG. It is filed as cell-based. For orientation: Block of hERG is tested as a sign of cardiac risk.
voltage-gated potassium channel hERG, sequence (Q12809 whole entry): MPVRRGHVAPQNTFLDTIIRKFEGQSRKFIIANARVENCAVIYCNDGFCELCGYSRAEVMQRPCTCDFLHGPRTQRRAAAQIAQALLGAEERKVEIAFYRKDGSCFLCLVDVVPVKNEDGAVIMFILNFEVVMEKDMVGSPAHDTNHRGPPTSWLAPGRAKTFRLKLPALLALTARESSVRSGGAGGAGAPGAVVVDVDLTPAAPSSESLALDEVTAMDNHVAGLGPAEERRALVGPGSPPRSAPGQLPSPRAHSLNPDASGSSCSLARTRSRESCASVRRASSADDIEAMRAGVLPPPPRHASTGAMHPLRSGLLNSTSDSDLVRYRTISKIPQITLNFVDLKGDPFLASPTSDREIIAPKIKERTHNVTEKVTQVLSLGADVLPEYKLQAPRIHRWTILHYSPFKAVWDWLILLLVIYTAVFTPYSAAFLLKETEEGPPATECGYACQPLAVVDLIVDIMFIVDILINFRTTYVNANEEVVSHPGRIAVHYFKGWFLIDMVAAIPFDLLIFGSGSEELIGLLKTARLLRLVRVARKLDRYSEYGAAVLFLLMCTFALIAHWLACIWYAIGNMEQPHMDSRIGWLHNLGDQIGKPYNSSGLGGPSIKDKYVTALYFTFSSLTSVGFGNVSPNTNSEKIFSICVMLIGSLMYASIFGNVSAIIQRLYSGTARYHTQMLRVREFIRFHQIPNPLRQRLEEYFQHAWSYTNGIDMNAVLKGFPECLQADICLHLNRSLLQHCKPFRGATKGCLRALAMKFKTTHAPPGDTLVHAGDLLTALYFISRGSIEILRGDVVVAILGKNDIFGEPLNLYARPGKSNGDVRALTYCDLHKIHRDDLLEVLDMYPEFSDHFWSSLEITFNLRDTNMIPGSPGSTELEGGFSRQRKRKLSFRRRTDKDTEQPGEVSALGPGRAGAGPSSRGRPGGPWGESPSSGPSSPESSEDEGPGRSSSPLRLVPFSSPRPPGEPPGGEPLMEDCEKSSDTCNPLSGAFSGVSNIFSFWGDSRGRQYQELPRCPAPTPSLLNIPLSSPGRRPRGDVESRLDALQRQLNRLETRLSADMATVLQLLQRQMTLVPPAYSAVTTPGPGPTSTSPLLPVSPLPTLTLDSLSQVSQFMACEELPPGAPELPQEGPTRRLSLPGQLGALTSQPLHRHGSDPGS
Experimental: This experiment was conducted to detect the effect of compounds in five concentrations on hERG channel current, obtaining a dose-effect curve and calculating the IC50.
Cell line and cell culture: HEK293 cell line stably expressing the hERG ion channel (Cat. No.: K1236) was purchased from Invitrogen Company. […] When the cell density grows to 40% to 80% of the bottom area of the culture dish, the cells were digested with trypsin and passaged three times per week. Prior to the experiment, cells were cultured in a 3.5 cm culture dish at a density of 5×10^5, induced with 1 μg/mL doxycycline for 48 hours, and then the cells were digested and seeded on glass slides for subsequent manual patch clamp experiments. […]
Experimental procedure: A coverslip loaded with HEK293 cells in a culture dish was placed in the perfusion chamber of the microscope stage. […] The hERG current used to detect the test compound was continuously recorded for 120 seconds before administration to evaluate the stability of the hERG current generated by the test cells. […] Test of the inhibitory effect of the test compound on hERG current: First, the hERG current measured in the extracellular fluid containing 0.1% DMSO was used as the detection baseline. […] After each perfusion was completed, approximately 5 minutes were waited to allow the compounds to fully act on the cells, and hERG currents were synchronously recorded.
A short description of data set [2]: Metabolic stability test in hepatocytes. It is filed as in vitro ADME. The note with it: cryopreserved hepatocytes in suspension; for hepatocyte CLint at 1 μM: read-out: In vitro Clint (μL/min/10^6 cells); for half-life at 1 μM: read-out: In vitro t1/2. On the procedure: The test compound and the control drug verapamil powder were prepared into a high concentration stock solution using DMSO, and diluted to a 100 μM working solution with 50% acetonitrile/water before use, with final concentrations of 1 μM for the test compound and verapamil.
• 1) 49.5 mL of Williams' Medium E and 0.5 mL GlutaMAX were mixed as the incubation solution. The hepatocyte recovery solution and the incubation solution were pre-warmed in a 37° C. water bath for at least 15 minutes prior to use. • 2) A tube of cryopreserved hepatocytes was taken, ensuring that the hepatocytes were still in a cryogenic frozen state prior to resuscitation. The hepatocytes were quickly placed in a 37° C. water bath and gently shaken until all ice crystals were completely dispersed, sprayed with 70% ethanol and transferred to a biosafety cabinet. • 3) The contents of the hepatocyte tube were poured into a centrifuge tube containing 50 mL of recovery medium, which were centrifuged at 100 g for 10 minutes. After centrifugation, the recovery medium was aspirated, and sufficient incubation medium was added to obtain a cell suspension having a cell density of approximately 1.5×10^6 cells/mL. • 4) Cellometer Vision was used to count hepatocytes and determine the density of viable cells. The survival rate of hepatocytes must be greater than 75%. The hepatocyte suspension was diluted with incubation medium to a viable cell density of 0.5×10^6 cells/mL. • 5) A portion of hepatocyte suspension with a density of 0.5×10^6 cells/mL was boiled in water for 5 minutes to inactivate as a negative control. After cells were inactivated, substrate conversion mediated by non-cellular enzymes could be easily investigated.
• 1) 198 μL of the suspension of live or inactivated cells was transferred to a 96-well deep-well plate, which was then placed on a vortexer and preheated in an incubator for 10 minutes. Live cells were incubated in duplicate, while inactivated cells were incubated in single. • 2) 2 μL of 100 μM test compound or verapamil was added to each well for the reaction initiation, and the deep-well plate was placed back on the incubator vortexer. • 3) 25 μL of the suspension were taken from the incubated samples at 0, 15, 30, 60, 90, and 120 minutes, respectively, and added to 150 μL of acetonitrile containing internal standards (200 nM alprazolam, 200 nM labetalol, 2 μM ketoprofen, and 200 nM caffeine) to terminate the reaction. The mixture was vortexed for 10 minutes and centrifuged at 3220 g and 4° C. for 30 minutes. After centrifugation was completed, 100 μL of the supernatant and 100 μL of ultra-pure water were mixed well for UPLC-MS/MS analysis detection.
All data calculations were performed using Microsoft Excel software. Peak areas were detected by extracting the ion chromatogram. The in vitro half-life (t1/2) of the parent drug was detected by linear fitting of the natural logarithm of the percentage of parent drug […] with time.
The in vitro half-life (t1/2) was calculated by the slope: […]
In vitro intrinsic clearance (unit μL/min/10^6 cells) was calculated using the following formula:
[formula] • V=incubation volume per well (0.2 mL); • N=number of cells per well (0.1×10^6 cells)

The test system of another data set is NUGC-3 cells. The experiment in a line: Anti-proliferation effect on NUGC-3 cells (Cell Counting Kit-8). It is filed as cell-based. The note with it: Homo sapiens, NUGC-3, 120 h; 5 days of treatment. On the procedure: Cell line NUGC-3 (JCRB, JCRB0822) was cultured in RPMI 1640 (Invitrogen, 11875-085) medium supplemented with 10% (v/v) fetal bovine serum (BI, 04-002-1A), according to the standard instructions of the American Type Culture Collection. The cell line was authenticated by short tandem repeat profiling.
In the proliferation assay, 1000 NUGC-3 cells were seeded in a 96-well flat clear bottom, TC-treated plate (Corning, 3903) in 200 μL of medium per well, and allowed to recover overnight in culture medium. Compounds were added with increasing concentration, with DMSO treatment serving as a […] control. After 5 days of treatment, the plate was equilibrated to room temperature for 30 minutes, and the number of living cells was measured by the addition of the Cell Counting Kit-8 reagent (MCE, HY-K0301). Absorbance was measured on an Enspire (Perkin elme). The relative viability of each group was presented as the percentage change relative to the […] control group and then fit to a four-parameter logit non-linear curve using the program XLFit (IDBS)
(In general: Tetrazolium assays rely on reduction of a dye to a coloured formazan, in cell work by metabolically active cells.)

Another data set concerns CYP3A4/5. The data set can be described thus: Multi-concentration inhibitory activity curve of CYP3A4/5 enzymes. It is filed as in vitro ADME. Particulars: human liver microsomes. On the procedure:
The buffer was filtered through a 0.45 μm filter.
Liver microsome working solution (final system concentration of 0.5 mg/mL) was prepared. […] The above stock solution was diluted with acetonitrile (4-fold dilution, 6 non-zero concentrations).
The half-maximal inhibitory concentration (IC50) was calculated using Graph Pad Prism.
On the technique in general: Liver microsomes are a subcellular fraction often used to study metabolism.

Setting [3] is: pH 7.4, probe midazolam, substrate midazolam, read-out: CYP3A4/5 IC50 (μM) (Midazolam).
Setting [4] is: pH 7.4, probe testosterone, substrate testosterone, read-out: CYP3A4/5 IC50 (μM) (Testosterone).

In the case of `COc1nc(C(=O)NS(C)(=O)=O)ccc1NCC#Cc1cc2c(N[C@@H]3CCN(C)C[C@@H]3F)cccn2c1CC(F)(F)F` [Cpd-1, 5-((3-(8-(((3S,4R)-3-Fluoro-1-methylpiperidin-4-yl)amino)-3-(2,2,2-trifluoroethyl)indolizin-2-yl)prop-2-yn-1-yl)amino)-6-methoxy-N-(methylsulfonyl)picolinamide], the IC50 was above 30 µM in data set [1] and 0.1 µM in the data set on NUGC-3 cells. Moreover, the hepatocyte CLint at 1 μM in data set [2] (Human hepatocytes), in data set [2] (Mouse hepatocytes) and in data set [2] (Rat hepatocytes) was below 2.7 µL/min/1e6 cells in each case. For the same compound, the half-life at 1 μM in data set [2] (Human hepatocytes), in data set [2] (Mouse hepatocytes) and in data set [2] (Rat hepatocytes) was above 8.52 h each time. In addition, the IC50 at 10 min in the data set on CYP3A4/5 (setting [3]) and with CYP3A4/5 (setting [4]) was above 50 µM throughout.

As to `[2H]C([2H])([2H])Oc1nc(C(=O)NS(C)(=O)=O)ccc1NCC#Cc1cc2c(N[C@@H]3CCN(C)C[C@@H]3F)cccn2c1CC(F)(F)F` [Cpd-2, 5-((3-(8-(((3S,4R)-3-Fluoro-1-methylpiperidin-4-yl)amino)-3-(2,2,2-trifluoroethyl)indolizin-2-yl)prop-2-yn-1-yl)amino)-6-(methoxy-d3)-N-(methylsulfonyl)picolinamide], the IC50 in data set [1] is above 30 µM; in the data set with NUGC-3 cells, 0.058 µM. The hepatocyte CLint at 1 μM in data set [2] (Human hepatocytes), in data set [2] (Mouse hepatocytes) and in data set [2] (Rat hepatocytes) was below 2.7 µL/min/1e6 cells each time. The half-life at 1 μM in data set [2] (Human hepatocytes), in data set [2] (Mouse hepatocytes) and in data set [2] (Rat hepatocytes) was above 8.52 h in each case. Besides, the IC50 at 10 min in the data set on CYP3A4/5 (setting [3]) and in the data set on CYP3A4/5 (setting [4]) was above 50 µM in each case.
